Experimental data as given in PubChem BioAssay (NCI).
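Cells were grown in 96-well plates and exposed to each compound for 48 hours at five concentrations; endpoints were interpolated linearly between bracketing concentrations, or set to the highest concentration if not reached. Definition used: TGI = concentration required for complete inhibition of growth.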

What was measured:
Assay in all cases: NCI tumour cell line growth inhibition, 48 h
[1] = test system: SK-MEL-28 melanoma
[2] = test system: HCT-15 colon
[3] = test system: TK-10 renal
[4] = test system: DLD-1 colon
[5] = test system: SW-620 colon
[6] = test system: SNB-75 CNS
[7] = test system: RXF-631 renal
[8] = test system: COLO 205 colon
[9] = test system: UO-31 renal
[10] = test system: OVCAR-3 ovarian
[11] = test system: SF-295 CNS
[12] = test system: SN12C renal
[13] = test system: HOP-18 NSCLC
[14] = test system: LOX IMVI melanoma
[15] = test system: HOP-62 NSCLC
[16] = test system: HL-60(TB) leukemia
[17] = test system: KM20L2 colon
[18] = test system: EKVX NSCLC
[19] = test system: LXFL 529 NSCLC
[20] = test system: SK-OV-3 ovarian
[21] = test system: 786-0 renal
[22] = test system: M19-MEL melanoma
[23] = test system: A549 NSCLC
[24] = test system: HCC-2998 colon
[25] = test system: MALME-3M melanoma
[26] = test system: M14 melanoma
[27] = test system: OVCAR-8 ovarian
[28] = test system: IGROV1 ovarian
[29] = test system: SF-268 CNS
[30] = test system: DMS 273 small cell lung
[31] = test system: RXF 393 renal
[32] = test system: ACHN renal
[33] = test system: CAKI-1 renal
[34] = test system: OVCAR-4 ovarian
[35] = test system: K-562 leukemia
[36] = test system: HT29 colon
[37] = test system: SNB-78 CNS
[38] = test system: HOP-92 NSCLC
[39] = test system: DMS 114 small cell lung
[40] = test system: U251 CNS
[41] = test system: UACC-62 melanoma
[42] = test system: NCI-H23 lung
[43] = test system: NCI-H460 lung
[44] = test system: HCT-116 colon
[45] = test system: RPMI-8226 leukemia
[46] = test system: OVCAR-5 ovarian
[47] = test system: CCRF-CEM leukemia
[48] = test system: SF-539 CNS
[49] = test system: NCI-H226 lung
[50] = test system: SNB-19 CNS
[51] = test system: UACC-257 melanoma
[52] = test system: SK-MEL-5 melanoma
[53] = test system: NCI-H522 lung
[54] = test system: SR leukemia
[55] = test system: MOLT-4 leukemia
[56] = test system: SK-MEL-2 melanoma
[57] = test system: KM12 colon
[58] = test system: A498 renal

SMILES: CCOC(=O)C1(Cc2ccccc2)CCCCCN1 (stereo not drawn)
- TGI [1]: > 100 µM
- TGI [2]: > 100 µM
- TGI [3]: > 100 µM
- TGI [4]: > 100 µM
- TGI [5]: > 100 µM
- TGI [6]: 92.6 µM
- TGI [7]: > 100 µM
- TGI [8]: > 100 µM
- TGI [9]: > 100 µM
- TGI [10]: > 100 µM
- TGI [11]: > 100 µM
- TGI [12]: > 100 µM
- TGI [13]: > 100 µM
- TGI [14]: > 100 µM
- TGI [15]: > 100 µM
- TGI [16]: > 100 µM
- TGI [17]: > 100 µM
- TGI [18]: > 100 µM
- TGI [19]: > 100 µM
- TGI [20]: > 100 µM
- TGI [21]: > 100 µM
- TGI [22]: > 100 µM
- TGI [23]: > 100 µM
- TGI [24]: > 100 µM
- TGI [25]: > 100 µM
- TGI [26]: > 100 µM
- TGI [27]: > 100 µM
- TGI [28]: > 100 µM
- TGI [29]: > 100 µM
- TGI [30]: > 100 µM
- TGI [31]: > 100 µM
- TGI [32]: > 100 µM
- TGI [33]: > 100 µM
- TGI [34]: > 100 µM
- TGI [35]: > 100 µM
- TGI [36]: > 100 µM
- TGI [37]: > 100 µM
- TGI [38]: > 100 µM
- TGI [39]: > 100 µM
- TGI [40]: > 100 µM
- TGI [41]: > 100 µM
- TGI [42]: > 100 µM
- TGI [43]: > 100 µM

SMILES: COc1cccc(NC(=O)CC(=O)N2N=C(N(CCC#N)c3ccccc3C)CC2c2ccccc2)c1 (stereo not drawn)
- TGI [1]: > 100 µM
- TGI [2]: > 100 µM
- TGI [44]: > 100 µM
- TGI [4]: > 100 µM
- TGI [5]: > 100 µM
- TGI [6]: > 100 µM
- TGI [7]: > 100 µM
- TGI [45]: > 100 µM
- TGI [8]: > 100 µM
- TGI [9]: > 100 µM
- TGI [10]: > 100 µM
- TGI [11]: > 100 µM
- TGI [12]: > 100 µM
- TGI [46]: > 100 µM
- TGI [13]: > 100 µM
- TGI [47]: > 100 µM
- TGI [15]: > 100 µM
- TGI [16]: > 100 µM
- TGI [17]: > 100 µM
- TGI [18]: > 100 µM
- TGI [19]: > 100 µM
- TGI [20]: > 100 µM
- TGI [21]: > 100 µM
- TGI [22]: > 100 µM
- TGI [48]: > 100 µM
- TGI [23]: > 100 µM
- TGI [49]: > 100 µM
- TGI [24]: > 100 µM
- TGI [50]: > 100 µM
- TGI [25]: > 100 µM
- TGI [26]: > 100 µM
- TGI [51]: > 100 µM
- TGI [52]: > 100 µM
- TGI [53]: > 100 µM
- TGI [27]: > 100 µM
- TGI [28]: > 100 µM
- TGI [29]: > 100 µM
- TGI [54]: > 100 µM
- TGI [30]: > 100 µM
- TGI [31]: > 100 µM
- TGI [55]: > 100 µM
- TGI [32]: > 100 µM
- TGI [33]: > 100 µM
- TGI [34]: > 100 µM
- TGI [35]: > 100 µM
- TGI [56]: > 100 µM
- TGI [36]: > 100 µM
- TGI [37]: > 100 µM
- TGI [38]: > 100 µM
- TGI [39]: > 100 µM
- TGI [40]: > 100 µM
- TGI [41]: > 100 µM
- TGI [57]: > 100 µM
- TGI [42]: > 100 µM
- TGI [43]: > 100 µM

SMILES: CN(C)C(N)=NC#N
- TGI [1]: > 100 µM
- TGI [2]: 34.8 µM
- TGI [44]: > 100 µM
- TGI [3]: > 100 µM
- TGI [4]: > 100 µM
- TGI [5]: 38.2 µM
- TGI [6]: > 100 µM
- TGI [7]: > 100 µM
- TGI [45]: > 100 µM
- TGI [8]: > 100 µM
- TGI [9]: > 100 µM
- TGI [10]: > 100 µM
- TGI [11]: > 100 µM
- TGI [12]: > 100 µM
- TGI [46]: > 100 µM
- TGI [13]: > 100 µM
- TGI [15]: > 100 µM
- TGI [16]: > 100 µM
- TGI [17]: > 100 µM
- TGI [18]: > 100 µM
- TGI [19]: > 100 µM
- TGI [20]: > 100 µM
- TGI [21]: > 100 µM
- TGI [22]: > 100 µM
- TGI [48]: > 100 µM
- TGI [23]: > 100 µM
- TGI [49]: > 100 µM
- TGI [24]: > 100 µM
- TGI [50]: > 100 µM
- TGI [25]: > 100 µM
- TGI [26]: > 100 µM
- TGI [51]: > 100 µM
- TGI [52]: > 100 µM
- TGI [53]: > 100 µM
- TGI [27]: > 100 µM
- TGI [28]: > 100 µM
- TGI [29]: > 100 µM
- TGI [30]: > 100 µM
- TGI [31]: 74.8 µM
- TGI [55]: > 100 µM
- TGI [32]: > 100 µM
- TGI [33]: > 100 µM
- TGI [34]: > 100 µM
- TGI [35]: > 100 µM
- TGI [58]: > 100 µM
- TGI [56]: > 100 µM
- TGI [36]: > 100 µM
- TGI [37]: > 100 µM
- TGI [38]: > 100 µM
- TGI [39]: > 100 µM
- TGI [40]: > 100 µM
- TGI [41]: > 100 µM
- TGI [57]: > 100 µM
- TGI [42]: > 100 µM
- TGI [43]: > 100 µM
